Measured values as given in ChEMBL document CHEMBL4376813, “Design, synthesis and biological evaluation of AT1 receptor blockers derived from 6-substituted aminocarbonyl benzimidazoles” (Eur J Med Chem, 2019).
The source made the active and inactive calls. The calls are words filed in the database; no cut-off is given here.

Legend:
[1] = Inhibition of [125I] Ang2 binding to AT1 receptor in Sprague-Dawley rat VSMC after 150 mins by gamma-counter method
Rattus norvegicus [2] = experiment: […] activity in spontaneous hypertensive rat at 10 mg/kg, po after 24 hrs; assay type: functional, organism-based
Rattus norvegicus [3] = experiment: […] activity in spontaneous hypertensive rat assessed as maximum reducing response of mean blood pressure at 10 mg/kg, po; assay type: functional
Rattus norvegicus [4] = experiment: […] activity in spontaneous hypertensive rat assessed as reduction in blood pressure at 5 to 10 mg/kg, po; assay type: functional, organism-based
Rattus norvegicus [5] = experiment: […] activity in spontaneous hypertensive rat assessed as reduction in blood pressure at 10 mg/kg, po; assay type: functional, organism-based

| SMILES | IC50 [1] | Ki [1] | Activity (Rattus norvegicus [2]) | Activity (Rattus norvegicus [3]) | Activity (Rattus norvegicus [4]) | Activity (Rattus norvegicus [5]) |
| --- | --- | --- | --- | --- | --- | --- |
| CCCCc1nc2c(C)cc(C(=O)NCCc3ccccc3)cc2n1Cc1cccc2c1ccn2-c1ccccc1C(=O)O | 8.5 nM | 6.2 nM |  |  |  |  |
| CCCc1nc2c(C)cc(C(=O)NCCc3ccccc3)cc2n1Cc1ccc2c(ccn2-c2ccccc2C(=O)O)c1 | 2.6 nM | 1.9 nM | Active | 57.9 mmHg | Active |  |
| CCc1nc2c(C)cc(C(=O)NCCc3ccccc3)cc2n1Cc1cccc2c1ccn2-c1ccccc1C(=O)O | 4.8 nM | 3.5 nM |  |  |  |  |
| CCCc1nc2c(C)cc(C(=O)NCCc3ccccc3)cc2n1Cc1cccc2c1ccn2-c1ccccc1C(=O)O | 2.3 nM | 1.7 nM | Active | 57.6 mmHg | Active |  |
| CCCCc1nc(Cl)c(CO)n1Cc1ccc(-c2ccccc2-c2nnn[nH]2)cc1 [LOSARTAN] | 14.6 nM | 10.5 nM |  |  |  | Active |
| CCCCc1nc2c(C)cc(C(=O)NCCc3ccccc3)cc2n1Cc1ccc2c(ccn2-c2ccccc2C(=O)O)c1 | 3.7 nM | 2.7 nM |  |  | Active |  |
| CCc1nc2c(C)cc(C(=O)NCCc3ccccc3)cc2n1Cc1ccc2c(ccn2-c2ccccc2C(=O)O)c1 | 12.1 nM | 8.8 nM |  |  |  |  |
